Laboratory results reported in US5977077A, “Xanthone analogs for the treatment of infectious diseases” (Interlab Corporation, priority 1996, dated 1999).
In brackets after ≈: the same amount, converted by molar mass. Where two headings read alike, the source gives them in different places.

How the values were obtained:
[1] = tested on: Plasmodium falciparum (D6 strain); assay: In vitro anti-malarial activity, [3H]-ethanolamine incorporation; type: cell-based; details: for IC50: Plasmodium falciparum; for anti-malarial potency relative to 2,3,4,5,6-pentahydroxyxanthone: in words
Description: The D6 strain of P. falciparum was cultured in Group A^+ human erythrocytes and suspended at a 3.3% hematocrit in RPMI-1640 (Gibco, Grand Island, N.Y.) (containing 4 g/L glucose, 50 mg/L gentamicin and 10% group A^+ human serum), buffered with 25 mM HEPES and 25 mM NaHCO3 (Larrey, 1989). Cultures were maintained at 37° C. in a gas mixture of 5% oxygen, 5% CO2, and 90% nitrogen.
The in vitro anti-malarial activities of 2,3,4,5,6-pentahydroxyxanthone and other formula X1 compounds were measured by the [^3 H]-ethanolamine incorporation method as described in Elabbadi et al., 1992, with minor modifications. [^3 H]-ethanolamine was obtained from American Radiolabeled Chemicals, Inc., St. Louis, Mo. Experiments were conducted in 96 well plates in a total volume of 200 μl at a final red blood cell concentration of 3.3% (v/v). An initial parasitemia of 0.2 to 0.5% was attained by addition of normal uninfected red cells. Radiolabeled ethanolamine was added after 48 hours of incubation and the experiment was terminated after 72 hours by collecting the cells onto glass fiber filters with an automated multiwell harvester.
Stock solutions of the various formula X1 compounds were dissolved in DMSO at a concentration of 1 mM and diluted in complete medium (including 10% human serum) to provide 10× stock concentrations in the range of 1 to 10,000 nM. The concentration of the formula X1 compound giving 50% inhibition of label incorporation (IC50) relative to control (i.e., drug-free) conditions was calculated from the dose-response curve.

Leishmania donovani [2] = assay: In vitro anti-leishmania activity, radiolabeled thymidine uptake assay; type: cell-based; details: for IC50: Leishmania donovani
Description: Briefly, promastigotes were cultivated at 25° C. in Schneiders medium supplemented with 20% inactivated fetal calf serum and 100 μg/mL of gentamicin. Cells were maintained in log phase by seeding at 1×10^6 /mL with subculturing when cultured densities approached 4×10^7 /mL before reaching their maximal density. For the assay, early log phase promastigotes were counted on a hemacytometer and resuspended at a concentration of 1-2×10^6 cell/mL in assay media (Schneiders medium plus 10% fetal bovine serum). Ten-fold serial dilutions of each test compound were prepared as described above and added to 180 μL of the parasite suspension. After incubation for 24 hours at 25° C., methyl-^3 H-thymidine was added to each sample for a final concentration of 1-2 μCi per well. Each sample was then incubated for an additional 18 hours prior to harvesting. After this incubation time, each sample was aspirated onto a filter mat, washed thoroughly with deionized water, dried and then counted in a scintillation counter with scintillation cocktail.

[3] = tested on: Candida albicans (clinical isolate); assay: Anti-Candida activity, minimum inhibitory concentration by visual inspection; type: cell-based; details: 15-18 hour incubation, 35° C., read-out: MIC against Candida albicans
Description: The minimum inhibitory concentration (MIC) of formula X1 compounds against a clinical isolate of Candida albicans was determined using the following method. […] The determination of this concentration is made by visual inspection; there is no visible growth in a tube containing the MIC of the formula X1 compound whereas visible growth is present in tubes containing sub-MIC concentrations of the compound.
Candida albicans was grown to midlog-phase in Luria-Bertani broth (10 grams Bacto-tryptone, 5 grams Bacto-yeast extract and 10 grams NaCl per liter) and then inoculated into sterile test tubes containing LB broth to an initial density of 10^3 /ml. The formula X1 compound to be tested is dissolved in dimethylsulfoxide (DMSO) at a concentration of 10 mM and added to each tube at serial dilutions (1 μM, 10 μM, 25 μM, 50 μM, 100 μM and 0 μM). The tubes are incubated at 35° C. for 15-18 hours and then visually inspected.

Leishmania donovani [4] = details: reported by Grogl et al. (1992); cited from earlier work
[5] = Table 1, D6 strain, 72 h, read-out: IC50, μM vs. Plasmodium
[6] = D6 strain, 72 h, read-out: anti-malarial activity IC50
[7] = Table 2, read-out: IC50, mg/ml vs. Leishmania
[8] = promastigotes, read-out: anti-leishmanial activity IC50
[9] = D6, 72 h, read-out: IC50, μM vs. Plasmodium

IC50 [1, 5] [µM]	SMILES	IC50 [1, 6] [µM]	IC50 (Leishmania donovani [2]; [7]) [mg/mL]	other results
25 to 50	O=c1c2cc(O)c(O)c(O)c2oc2cc(O)c(O)c(O)c12 [1,2,3,5,6,7-Hexahydroxyxanthone, 1,2,3,5,6,7-Hexahydroxy-xanthone]	–	–	–
1	O=c1c2cc(O)c(O)c(O)c2oc2cc(O)cc(O)c12 [1,3,5,6,7-pentahydroxyxanthone, 1,3,5,6,7-pentahydroxy-xanthone]	–	–	–
> 100	O=c1c2ccccc2oc2cc(O)cc(O)c12 [1,3-dihydroxyxanthone, 1,3-dihydroxyxanthone]	–	–	–
> 100	COc1cc2c(=O)c3ccc(OC)c(OC)c3oc2c(OC)c1OC [2,3,4,5,6-pentamethoxyxanthone]	> 100	–	anti-malarial potency relative to 2,3,4,5,6-pentahydroxyxanthone [1]: essentially eliminated the anti-malarial activity
10	O=c1c2ccc(O)c(O)c2oc2c(O)c(O)ccc12 [3,4,5,6-Tetrahdroxyxanthone, 3,4,5,6-Tetrahdroxy-xanthone]	–	–	–
–	CCN(CC)CCCC(C)Nc1ccnc2cc(Cl)ccc12 (stereo not drawn) [Chloroquine, reference compound]	–	–	IC50 ([1]; D6, 72 h, read-out: anti-malarial activity IC50): ~0.02 µM
50	O=c1c2cc(O)c(O)cc2oc2cc(O)c([C@@H]3O[C@H](CO)[C@@H](O)[C@H](O)[C@H]3O)c(O)c12 [Mangiferin, reference compound]	–	> 0.05	–
–	COc1c(O)cc2oc3cc(O)c(CC=C(C)C)c(O)c3c(=O)c2c1CC=C(C)C [Mangostin, reference compound]	–	0.00041	IC50 [1, 9]: 5 µM; IC50 (Leishmania donovani [2]; read-out: anti-leishmanial activity IC50): 0.00041 mg/mL; IC50 (Leishmania donovani [2]; [8]): 1 µM
–	O.O.O.O.O.O.O.O.O.O=C([O-])[C@@H]1[O][Sb](=[O])([O][Sb]2(=[O])[O][C@H]([C@H](O)CO)[C@H](O)[C@H](C(=O)[O-])[O]2)[O][C@H]([C@H](O)CO)[C@@H]1O.[Na+].[Na+].[Na+] (stereo partly drawn) [Pentostam]	–	–	IC50 values of commonly used anti-leishmanial drugs (Leishmania donovani [4]): 100 to 2000 µg/mL
–	O=c1c2ccccc2oc2ccccc12 [Xanthone]	–	–	IC50 [1, 9]: 10 µM

SMILES	IC50 [1, 5] [µM]	IC50 [1, 6] [µM]	IC50 (Leishmania donovani [2]; [7]) [mg/mL]	other results
O=c1c2cc(O)c(O)c(O)c2oc2c(O)c(O)c(O)cc12 [2,3,4,5,6,7-hexahydroxyxanthone]	0.075	0.075	0.0015	IC50 (Leishmania donovani [2]; [8]): ~5 µM; MIC [3]: ~37.5 µM (≈ 11 µg/mL)
CC(=O)Oc1cc2c(=O)c3ccc(OC(C)=O)c(OC(C)=O)c3oc2c(OC(C)=O)c1OC(C)=O [2,3,4,5,6-pentaacetoxyxanthone]	0.075	~0.075	–	anti-malarial potency relative to 2,3,4,5,6-pentahydroxyxanthone [1]: several times more potent
O=c1c2ccc(O)c(O)c2oc2c(O)c(O)c(O)cc12 [2,3,4,5,6-pentahydroxyxanthone]	0.4 to 0.5	0.4 to 0.5	0.0015	IC50 (Leishmania donovani [2]; [8]): ~5 µM; anti-leishmanial activity IC50 (Leishmania donovani [2]; promastigotes, value in mg/ml): ~1 µg/mL; MIC [3]: ~37.5 µM (≈ 10.4 µg/mL)
